In patent publication US20090286770A1, “Use of Staurosporine Derivatives for the Treatment of Multiple Myeloma” (priority 2004, published 2009):

System: cell lines harbouring ras or FGFR3 activating mutations especially multiple myeloma cell lines
Assay: potency toward cell lines harbouring ras or FGFR3 activating mutations
Format: cell-based
Conditions: especially multiple myeloma cell lines harbouring the ras or FGFR3

## CO[C@@H]1[C@H](N(C)C(=O)c2ccccc2)C[C@H]2O[C@]1(C)n1c3ccccc3c3c4c(c5c6ccccc6n2c5c31)C(=O)NC4 [MIDOSTAURIN, N-[(9S,10R,11R,13R)-2,3,10,11,12,13-hexahydro-10-methoxy-9-methyl-1-oxo-9,13-epoxy-1H,9H-diindolo[1,2,3-gh:3′,2′,1′-lm]pyrrolo[3,4-j][1,7]benzodiazonin-11-yl]-N-methylbenzamide]
  potency toward cell lines harbouring ras or FGFR3 activating mutations: unexpected high potency
